Like-named read-outs stand apart in the source and are kept apart here.
Columns and labels:
SOS1 and KRAS G12C = SOS1 and KRAS G12C (Homo sapiens (Human), UniProt Q07889); experiment: KRAS::SOS1 AlphaScreen binding assay (KRAS G12C); conditions: average of at least two measurements
Experimental: (§1) Low IC50 values are indicative of high potency of the SOS1 inhibitor compound in this assay setting:
(§2) • GST-tagged SOS1 (564_1049_GST_TEV_ECO) produced in-house • 6xHis-Tev-K-RasG12D/G12C(1-169)Avi produced in-house • GDP (Sigma Cat No G7127) • AlphaLISA Glutathione Acceptor Beads (PerkinElmer, Cat No AL109) • AlphaScreen Streptavidin Donor Beads (PerkinElmer Cat No 6760002) • Assay plates: Proxiplate-384 PLUS, white (PerkinElmer, Cat No 6008289)
(§3) [formula] • KRAS::SOS1 GDP mix: • 7.5 nM (final assay concentration) K-RasG12C, 10 nM (final assay concentration) K-RasG12D, 10 μM (final assay concentration) GDP and 5 nM (final assay concentration) GST-SOS1 are mixed in assay buffer prior to use and kept at rt. Bead mix: • AlphaLISA Glutathione Acceptor Beads and AlphaScreen Streptavidin Donor Beads are mixed in the dark in assay buffer at a concentration of 10 μg/mL (final assay concentration) each prior to use and kept at rt.
(§4) Compounds are diluted to a final start concentration of 100 μM and are tested in duplicate. Assay-ready plates (ARPs) are generated using an Access Labcyte Workstation with a Labcyte Echo 550 or 555 acoustic dispenser. For compound a start concentration of 100 μM, 150 nL of compound solution is transferred per well in 11 concentrations in duplicate with serial 1:5 dilutions.
(§5) The assay is run using a fully automated robotic system in a darkened room below 100 Lux. 10 μL of KRAS::SOS1 GDP mix is added into columns 1-24 to the 150 nL of compound solution (final dilution in the assay 1:100, final DMSO concentration 1%).
(§6) After a 30 minute incubation time, 5 μL of bead mix is added into columns 1-23. Plates are kept at rt in a darkened incubator. After a further 60 minutes incubation, the signal is measured using a PerkinElmer Envision HTS Multilabel Reader using the AlphaScreen specifications from PerkinElmer. Each plate contains the following controls:
(§7) diluted DMSO+KRAS::SOS1 GDP mix+bead mix
(§8) diluted DMSO+KRAS::SOS1 GDP mix
(§9) Result calculation: IC50 values are calculated and analyzed using a 4 parametric logistic model.
(§10) Table 1: Inhibition values for KRAS G12C as well as for KRAS G12D. […] The value indicates an average value of at least two measurements.

SOS1 and KRAS G12D = SOS1 and KRAS G12D (Homo sapiens (Human), UniProt Q07889); experiment: KRAS::SOS1 AlphaScreen binding assay (KRAS G12D); conditions: average of at least two measurements
SOS1 and KRAS G12D, sequence (Q07889 564-1049, stated change not applied): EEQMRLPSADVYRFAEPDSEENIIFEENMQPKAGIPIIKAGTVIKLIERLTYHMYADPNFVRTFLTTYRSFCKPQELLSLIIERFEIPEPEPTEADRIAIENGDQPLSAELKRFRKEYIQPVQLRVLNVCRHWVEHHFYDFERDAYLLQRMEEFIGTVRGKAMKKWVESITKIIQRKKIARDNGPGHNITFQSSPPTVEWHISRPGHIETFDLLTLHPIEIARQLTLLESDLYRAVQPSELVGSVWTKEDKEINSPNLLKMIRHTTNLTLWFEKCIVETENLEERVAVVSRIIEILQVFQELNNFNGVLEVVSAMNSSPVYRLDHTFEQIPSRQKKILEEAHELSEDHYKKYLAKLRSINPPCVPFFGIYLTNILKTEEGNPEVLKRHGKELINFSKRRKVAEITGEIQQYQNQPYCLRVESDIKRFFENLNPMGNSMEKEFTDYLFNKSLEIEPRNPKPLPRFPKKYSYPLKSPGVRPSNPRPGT
Experimental: as §1, §2, §3, §4, §5, §6, §7, §8, §9, §10

[1] = tested on: ERK phosphorylation in NCI-H358 SOS2 KO cells (KRAS G12C); experiment: Erk phosphorylation assay; format: cell-based, human; conditions: EGF stimulated, average of at least two measurements, read-out: pERK IC50
Experimental: Low IC50 values are indicative of high potency of the SOS1 inhibitor compounds in this assay setting.
ERK phosphorylation assays are performed using the following human cell line: • NCI-H358 SOS2 KO (Hofmann, Gmachl, Ramharter et al, Cancer Discov. 2021, 11(1):142-15): human lung cancer with a KRAS G12C mutation;
NCI-H358 SOS2 KO are seeded at 50000 cells per well in 60 μL of DMEM with 2% FBS, in Greiner TC 384 plates. The cells are incubated overnight in an incubator at 37° C. and 5% CO2 in a humidified atmosphere. 60 nL compound solution (10 mM DMSO stock solution) is then added using a Beckman Coulter Labcyte Echo 550 device. After 50 min incubation in the aforementioned incubator, 5 nl EGF are added to each well for a final concentration of approx. 8 ng/mL using a Beckman Coulter Labcyte Echo 550 device and cells are incubated for another 10-15 minutes before lysis. The medium is removed, and the cells are lysed by addition of 20 μL of 1.6-fold lysis buffer from the AlphaLISA SureFire Ultra pERK1/2 (Thr202/Tyr204) Assay Kit with added protease inhibitors. After 20 minutes of incubation at rt with shaking, 6 μL of each lysate sample is transferred to a 384-well Proxiplate and analyzed for pERK (Thr202/Tyr204) with the AlphaLISA SureFire Ultra pERK1/2 (Thr202/Tyr204) Assay Kit. 3 μL Acceptor Mix and 3 μL Donor Mix are added under subdued light and incubated for 2 h at rt in the dark, before the signal is measured on a Perkin Elmer Envision plate reader using 384 AlphaScreen settings for Proxiplates. Data are fitted by iterative calculation with variable hill slope. The sigmoidal curve slope is fitted using a default fitting curve to ascertain IC50 values.
Table 2: Erk Phosphorylation assay. The value indicates an average value of at least two measurements.

P450 3A4 = P450 3A4 (Homo sapiens (Human), UniProt P08684); experiment: Cytochrome P450 isoenzyme inhibition assay (P450 3A4, midazolam); format: in vitro ADME; conditions: human liver microsomes, Midazolam as substrate; read-out: CYP3A4 inhibition IC50
P450 3A4, sequence (P08684 whole entry): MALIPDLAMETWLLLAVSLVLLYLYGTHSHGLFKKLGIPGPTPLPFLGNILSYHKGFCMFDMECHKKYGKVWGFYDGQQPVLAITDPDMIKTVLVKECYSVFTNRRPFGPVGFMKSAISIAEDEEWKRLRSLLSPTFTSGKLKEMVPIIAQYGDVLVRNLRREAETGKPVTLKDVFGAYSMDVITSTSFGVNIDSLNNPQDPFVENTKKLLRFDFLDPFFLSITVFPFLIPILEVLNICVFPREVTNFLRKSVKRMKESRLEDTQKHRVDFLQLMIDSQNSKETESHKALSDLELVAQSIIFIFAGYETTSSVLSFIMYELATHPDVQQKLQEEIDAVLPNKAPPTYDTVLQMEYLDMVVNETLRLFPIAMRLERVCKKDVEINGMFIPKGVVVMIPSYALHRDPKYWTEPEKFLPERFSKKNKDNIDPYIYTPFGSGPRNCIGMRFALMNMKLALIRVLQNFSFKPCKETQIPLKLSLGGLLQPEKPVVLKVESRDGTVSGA
Experimental: For the following cytochrome P450 isoenzymes, these substrates and metabolic reactions are monitored: P450 3A4: hydroxylation of Midazolam (MDZ).
The final incubation volume contains TRIS buffer (0.1 M), MgCl2 (5 mM), a certain concentration of human liver microsomes dependent on the P450 isoenzyme measured (P450 3A4: 0.1 mg/ml) and a certain concentration of the individual substrate for each isoenzyme (P450 3A4: Midazolam 5 μM).
The effect of the test compound is determined at five different concentrations in duplicate (e.g. highest concentration 50 μM with subsequent serial 1:4 dilutions) or without test compound (high control). Following a short preincubation period, reactions are started with the cofactor (NADPH, 1 mM) and stopped by cooling the incubation down to 8° C. and subsequently by addition of one volume of ACN. An internal standard solution—usually the stable isotope of the formed metabolite—is added after quenching of incubations. Peak area analyte (=metabolite formed) and internal standard is determined by LC-MS/MS. The resulting peak area ratio analyte to internal standard in these incubations is compared to a control activity containing no test compound. Within each of the assay runs, the IC50 of a positive control inhibitor dependent on the P450 isoenzyme measured (P450 3A4: ketoconazole) is determined. The assay results are plotted against compound concentrations to calculated IC50 values (half maximal inhibitory concentrations) for inhibitory compounds utilizing Software IDBS E-WorkBook.
Table 4: Inhibition of P450 isoenzyme 3A^4.

CYP3A4 = CYP3A4 (Homo sapiens (Human), UniProt P08684); experiment: Mechanism-based inhibition of CYP3A4 assay (MBI 3A4); format: in vitro ADME; conditions: human liver microsomes, midazolam substrate, hydroxy-midazolam formation after 30 min preincubation relative to 0 min; for inhibition at 30 min: human, probe midazolam 15 μM (hydroxy-midazolam formation), read-out: MBI inhibition % ctrl. [%] with MDZ
CYP3A4, sequence (P08684 whole entry): as above
Experimental: Mechanism-Based Inhibition of CYP3A4 assay (MBI 3A4): The mechanism-based inhibition towards CYP3A4 is assayed in human liver microsomes with midazolam as substrate. The test compounds and water control (wells w/o test compound) are preincubated in presence of NADPH (1 mM) with human liver microsomes (0.2 mg/mL) at a concentration of 0, 5 and 25 μM for 0, 10 and 30 min. After preincubation, the incubate is diluted 1:10 (to 0.02 mg/mL) and the substrate midazolam (15 μM) is added for the main incubation (10 min). The main incubation is quenched with ACN and the formation of hydroxy-midazolam is quantified via LC/MS-MS. The formation of hydroxy-midazolam from the 30 min preincubation relative to the formation from the 0 min preincubation is used as a readout. Values of less than 100% mean that the substrate midazolam is metabolized to a lower extent upon 30 min preincubation compared to 0 min preincubation. In general, low effects upon 30 min preincubation are desired (corresponding to values close to 100%/not different to the values determined with water control).
Table 5: Mechanism-based inhibition of P450 isoenzyme 3A4 with midazolam as substrate.

human hepatocytes = experiment: Metabolic stability in human hepatocytes; conditions: 1 μM test compound, 50% human serum, percentage of liver blood flow
[2] = Homo sapiens, NCI-H358, NCI-H358 SOS2 KO cells

SOS1 and KRAS G12C, sequence (Q07889 564-1049, stated change not applied): as the sequence (Q07889 564-1049, stated change not applied) above

Row | SMILES | IC50 (SOS1 and KRAS G12C) | IC50 (SOS1 and KRAS G12D) | IC50 [1, 2] | IC50 (P450 3A4) | inhibition at 30 min (CYP3A4) | Hepatic clearance - QH[%] in human hepatocytes (human hepatocytes) | IC50 ([1]; NCI-H358 SOS2 KO cells) | MBI inhibition % ctrl. [%] with MDZ (CYP3A4)
1 | C[C@@H](NC(=O)c1cc(N2CCC(N3CC[C@@H](CO)C3)CC2)c2ncnn2c1)c1cccc(C(C)(F)F)c1F [Example E73] | 64 nM | 64 nM | 136 nM | > 50000 nM | 103% | 24% | – | –
2 | C[C@@H](NC(=O)c1cc([C@H]2CC[C@H](N3CCC[C@H](O)C3)CC2)c2nncn2c1)c1cccc(C(F)F)c1F [Example E81] | 25 nM | 24 nM | 258 nM | > 50000 nM | 93% | 15% | – | –
3 | Cc1nc2c([C@H]3CC[C@H](N4CCC[C@H](O)C4)CC3)cc(C(=O)N[C@H](C)c3cccc(C(F)F)c3F)cn2n1 [Example E85] | 37 nM | 24 nM | 158 nM | > 50000 nM | 102% | 14% | – | –
4 | C[C@@H](NC(=O)c1cc(N2CCC(NC3COCC3O)CC2)c2ncnn2c1)c1cccc(C(F)F)c1F (single isomer, unassigned) [Example cis-E16a] | 45 nM | 41 nM | 320 nM | > 50000 nM | 92% | 32% | – | –
5 | C[C@@H](NC(=O)c1cc(N2CCC(N(C)CCO)CC2)c2ncnn2c1)c1cccc(C(F)(F)F)c1F [Example E55] | 69 nM | 54 nM | 397 nM | > 50000 nM | 83% | <4% | – | –
6 | C[C@@H](NC(=O)c1cc(N2CCC(NCC(C)(C)O)CC2)c2ncnn2c1)c1cccc(C(F)(F)F)c1F [Example E50] | 49 nM | 42 nM | 220 nM | > 50000 nM | 83% | 15% | – | –
7 | C[C@@H](NC(=O)c1cc([C@H]2CC[C@H](N3CC[C@H](O)C3)CC2)c2ncnn2c1)c1cccc(C(F)(F)F)c1F [Example E69] | 28 nM | 23 nM | 218 nM | > 50000 nM | 85% | <4% | – | –
8 | C[C@@H](NC(=O)c1cc(N2CCC(N3CC[C@](C)(O)C3)CC2)c2ncnn2c1)c1cccc(C(F)F)c1F [Example E4] | 82 nM | 70 nM | 336 nM | > 50000 nM | 99% | 20% | – | –
9 | C[C@@H](NC(=O)c1cc([C@H]2CC[C@H](N3CC[C@](C)(O)C3)CC2)c2ncnn2c1)c1cccc(C(F)F)c1F [Example E59] | 42 nM | 41 nM | 166 nM | > 50000 nM | 99% | 15% | – | –
10 | C[C@@H](NC(=O)c1cc([C@H]2CC[C@H](N3CCC(F)C(O)C3)CC2)c2ncnn2c1)c1cccc(C(F)F)c1F (single isomer, unassigned) [trans-E61a] | 39 nM | 41 nM | – | > 50000 nM | 93% | 40% | 391 nM | –
11 | Cc1nc2c([C@H]3CC[C@H](N4CCCC4)CC3)cc(C(=O)N[C@H](C)c3cccc(C(F)F)c3F)cn2n1 [Example E84] | 38 nM | 37 nM | 174 nM | > 50000 nM | 103% | 10% | – | –
12 | C[C@@H](NC(=O)c1cc(N2CCC(NC3COCC3O)CC2)c2ncnn2c1)c1cccc(C(F)F)c1F (single isomer, unassigned) [Example cis-E16b] | 26 nM | 19 nM | – | > 50000 nM | – | 24% | 316 nM | 87%
13 | C[C@@H](NC(=O)c1cc(N2CCC(N3CC[C@@H](CO)C3)CC2)c2ncnn2c1)c1cccc(C(F)(F)F)c1F [Example E27] | 77 nM | 73 nM | 73 nM | > 50000 nM | 90% | 9% | – | –
14 | C[C@@H](NC(=O)c1cc([C@H]2CC[C@H](N3CCC(F)C(O)C3)CC2)c2ncnn2c1)c1cccc(C(F)(F)F)c1F (single isomer, unassigned) [Example trans-E70b] | 36 nM | 42 nM | – | > 50000 nM | 107% | 19% | 169 nM | –

Reference: patent US20250313560A1, “Novel bicyclic benzylamido pyridine derivatives as SOS1 inhibitors” (Boehringer Ingelheim International GmbH, priority 2024, published 2025)
